According to article PMC7956476, “Quinoline Functionalized Schiff Base Silver (I) Complexes: Interactions with Biomolecules and In Vitro Cytotoxicity, Antioxidant and Antimicrobial Activities” (Molecules, 2021):

How the values were obtained:
[1] = system: calf thymus DNA (CT-DNA); assay: CT-DNA electronic absorption titration (Wolfe–Shimer); format: binding; details: for CT-DNA-Cmp. Kb (M^−1) × 10^5: intrinsic binding constant, absorption titration, PBS pH 7.2
Experimental: The interaction of the L1–L5 and complexes Q1–Q15 with calf thymus-DNA was carried out in a Phosphate buffer saline solution pH 7.2 stored at 4 °C. The DNA stock solution was prepared by dissolving CT-DNA sodium salt in Phosphate buffer saline solution with continuous stirring overnight. It was filtered and stored at 4 °C and used within four days. […] A fixed amount of the L1–L5 and complexes Q1–Q15 (50 µM) were prepared by dissolving an appropriate amount in DMSO. […] Therefore, in all the experimental of the interaction of L1–L5 and complexes Q1–Q15 with biomolecules, the final concentration of DMSO in the incubation mixture was ~2% (v/v).
The binding modes of L1–L5 and complexes Q1–Q15 to CT-DNA were characterized through electronic absorption titration by varying concentrations of CT-DNA (0–30 µM) in phosphate buffer saline solution against fixed concentrations (20 µM) of L1–L5 and complexes Q1–Q15. […] The absorbance of CT-DNA is cancelled by adding equivalent amounts of CT-DNA to both the tested compounds and the reference solutions.

[2] = system: Pseudomonas aeruginosa ATCC 27853; assay: Minimum inhibitory concentration (MIC), spotting on Müeller–Hinton agar; format: cell-based; details: Gram − Ve, P. aeruginosa, 37 °C; for Minimum inhibitory concentration, PA: 18 h; for MIC: Pseudomonas aeruginosa, ATCC27853, 18 h, read-out: Minimum inhibitory concentration, PA
Experimental: (§1) Sterilized Nutrient agar medium was first prepared by dissolving 38 g of Müeller–Hinton agar (MHA) (Biolab, Midrand, Africa) in distilled water (1 L). […] The cooled Agar medium was poured in Petri dishes while ensuring a uniform 4 mm depth of the medium and cooling further to ambient temperature.
(§2) These bacteria were inoculated in a sterilized Nutrient Broth (NB) (Biolab, Midrand, Africa) through streak plate technique and incubated at 37 °C for 18 h. The nutrient broth was sterilized by dissolving 1.3 g in distilled water (100 mL). Ca. 10 mL of the nutrient broth was transferred into a cotton wool-plugged test tubes and wrapped with an aluminium foil. […] Following this was the isolation of a single colony of the bacteria and inoculated into a 10 mL sterile NB which was then incubated in a shaking incubator at 37 °C for 18 h. Each of the bacteria strain concentrations was adjusted with sterile distilled water to get a final concentration of 1.5 × 10^8 cfu/mL, i.e., 0.5 Mc Farland’s Standard using a densitometer (Mc Farland Latvia). The bacteria were lawn inoculated on the set MHA Petri dishes using a sterile cotton swab. Screening of L1–L5 and Q1–Q15 for antibacterial activity was first carried out by spotting 5 µL of their solution (prepared from the dissolution of 1000 µg of the L1–L5 and Q1–Q15 in 1 mL dimethyl sulfoxide (DMSO)) on an MHA petri dish and incubated at 37 °C for 18 h. The antibacterial activity was determined by looking out for a clear zone at the spotting point.

[3] = system: Escherichia coli ATCC 25922; assay: as above; format: cell-based; details: Gram − Ve, E. coli, 37 °C, 18 h
Experimental: as §1, §2

[4] = system: Salmonella typhimurium ATCC 14026; assay: as above; format: cell-based; details: Gram − Ve, S. typhi, 37 °C, 18 h; for MIC: Salmonella enterica, read-out: Minimum inhibitory concentration, ST
Experimental: as §1, §2

[5] = system: Staphylococcus aureus ATCC 700699 (methicillin-resistant); assay: as above; format: cell-based; details: Gram + Ve, methicillin-resistant S. aureus, 37 °C, 18 h
Experimental: as §1, §2

[6] = system: CT-DNA-EB adduct; assay: Fluorescence competitive displacement of ethidium bromide from CT-DNA; format: binding, calf; details: for CT-DNA-EB-Complex Ksv (M^−1) × 10^4: Stern–Volmer quenching constant, EB displacement, 25 °C; for CT-DNA-EB-Complex Kq (M^−1S^−1) × 10^12: bimolecular quenching constant, Ksv = Kqτo, τo 10^−8 s; for CT-DNA-EB-Complex Kbin (M^−1) × 10^5: binding constant from double-logarithmic plot
Source text: The Stern–Volmer plot approach was used based on the fact that the Stern–Volmer plots for Q1–Q15 (Figure 5c), were linear an indication of only one mechanism for the quenching fluorescence, i.e., either dynamic or static. […] (1) Ksv=Kqτo where Ksv, Kq, and τo represent Stern–Volmer quenching constant, bimolecular quenching constant, and an average lifetime of the fluorophore in the absence of the quencher, respectively. τₒ normally takes about 10^−8 s in biomacromolecules.
The double-logarithmic Equation (2) was used in determining the binding constant of complexes Q1–Q15 and CT-DNA. (2) logFo−F/F=logKb+n logQ
A competitive displacement study was carried out using fluorescence spectroscopy between CT-DNA pre-treated with ethidium bromide (EB) and complexes Q1–Q15 to establish the complexes′ actual mode of binding to CT-DNA. […] The competitive luminescence displacement assay was done using a modified method. Pre-treated 15 µM solution of EB with 15 µM of CT-DNA was prepared in a phosphate buffer of pH 7.2 and left to equilibrate for 30 min. Keeping CT-DNA-EB concentrations constant, different concentrations (0–20 µM) of the complexes were added at 8 min incubation interval at room temperature. The fluorescence quenching ability of CT-DNA bound EB by the complexes were recorded in the wavelength range of 530–700 nm with an excitation wavelength at 525 nm at 25 °C. (6) Fo/F=1+KSVQ=1+KqτoQ
A Stern–Volmer (Equation (6)) was used to evaluate the CT-DNA-EB fluorescence quenching of the complexes. Where Fo and F denote the relative fluorescence intensities of CT-DNA in the absence and presence of the quencher, Ksv, Stern–Volmer quenching constant, [Q], quencher concentration, Kq, bimolecular quenching constant and τo, average lifetime of the fluorophore in the absence of the quencher which is typically equal to 10^−8 s in biomacromolecules.

[7] = Ferric reducing antioxidant power (FRAP) assay; format: biochemical; details: done in triplicate
Source text: Antioxidants are important in protecting the human body against damage by reactive oxygen species (ROS). Accumulation of ROS in the cells may lead to damage of the DNA, RNA, and proteins which subsequently leads to several physiological disorders such as cardiovascular disease, diabetes, rheumatism, atherosclerosis, cancer, aging and cell death. […] The free radical scavenging ability of all ligands and complexes in this study were investigated using ferric reducing antioxidant power (FRAP). In antioxidant studies, FRAP assay is often preferred because it is simple, fast, economical, and direct in antioxidant measurement. FRAP assay is based on the electron-donating ability of an antioxidant compound. This involves the reduction of a colorless Fe^3+ tripyridyltriazine complex (Fe^3+ (TPTZ)) to an intense blue-colored Fe^2+ tripyridyltriazine complex (Fe^2+ (TPTZ)) by the electron-donating antioxidants at low pH [69]. The reducing power is to determine the reductive ability of the test compounds.
Antioxidant activity studies of L1–L5 and Q1–Q15 were done using ferric reducing antioxidant power (FRAP) assay. The ferric reducing antioxidant power assay is often used to evaluate the ability of an antioxidant to donate an electron. […] The resulting mixture was incubated at 50 °C for 20 min, and 2.5 mL of 10% trichloroacetic acid was added to acidify the mixture. After that, 1 mL of the acidified mixture was added to 1 mL of distilled water and 0.5 mL of 0.1% FeCl3. The absorbance of the resulting solution was then measured at 700 nm. The antioxidant power of the compounds was expressed as a percentage of ferric reducing antioxidant power Ascorbic acid equivalent, as shown in Equation (4). (4) % FRAP =Absorbance of Absorbance of Sample/Absorbance of Ascorbic Acid ×100

[8] = biological target: bovine serum albumin (BSA) (Bos taurus, UniProt P02769); assay: Albumin binding by absorption spectroscopy titration
bovine serum albumin (BSA), sequence (P02769 25-607): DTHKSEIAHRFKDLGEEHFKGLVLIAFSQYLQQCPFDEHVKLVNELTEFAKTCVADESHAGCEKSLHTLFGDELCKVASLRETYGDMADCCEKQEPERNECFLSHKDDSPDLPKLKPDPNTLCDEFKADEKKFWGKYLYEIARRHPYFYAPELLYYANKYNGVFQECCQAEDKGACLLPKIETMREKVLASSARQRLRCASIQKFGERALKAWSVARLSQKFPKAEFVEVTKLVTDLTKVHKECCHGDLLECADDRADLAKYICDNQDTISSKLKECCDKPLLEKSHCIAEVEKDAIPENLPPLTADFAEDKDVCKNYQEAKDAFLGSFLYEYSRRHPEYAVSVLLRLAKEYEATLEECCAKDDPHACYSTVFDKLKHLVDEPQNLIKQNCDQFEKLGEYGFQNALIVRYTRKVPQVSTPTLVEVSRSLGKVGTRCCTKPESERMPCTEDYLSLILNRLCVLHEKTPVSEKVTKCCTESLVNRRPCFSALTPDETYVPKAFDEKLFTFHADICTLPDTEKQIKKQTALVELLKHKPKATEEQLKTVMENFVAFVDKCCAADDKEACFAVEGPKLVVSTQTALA
Source text: Bovine serum albumin (BSA) was used as the protein standard in this study because of its close resemblance to human serum albumin (HSA), its stability, high solubility, neutrality in many biochemical reactions and low cost. In protein binding study, absorption spectroscopy titration is a known method used in studying the conformational changes in proteins, and this protein is characterized by an intense absorbance peak at 280 nm depicting the microenvironment around tyrosine and tryptophan residue polarity.
The absorbance assay of albumin binding is a very simple method used in identifying the conformational changes in protein. […] A stock solution of bovine serum albumin (BSA) was prepared by dissolving an appropriate amount of BSA in phosphate buffer saline solution (pH 7.2) under constant stirring for 1 h at 25 °C. It was kept at 4 °C and used within four days. […] The stock solution of the complex was prepared by dissolving 1 mmol of the complexes in DMSO. The absorption titration assay was done by adding different concentrations (0–10 µM) of the complexes to a constant BSA concentration (6 µM). The sample solution was incubated after each addition of the concentrations for 10 min at 25 °C before recording the absorbance at λmax 280 nm.

Structure (SMILES) | CT-DNA-Cmp. Kb (M^−1) × 10^5 [1] | Minimum inhibitory concentration, PA [2] [µg/mL] | Minimum inhibitory concentration, EC [3] [µg/mL] | Minimum inhibitory concentration, ST [4] [µg/mL] | Minimum inhibitory concentration, MRSA [5] [µg/mL] | CT-DNA-EB-Complex Ksv (M^−1) × 10^4 [6] | CT-DNA-EB-Complex Kq (M^−1S^−1) × 10^12 [6] | CT-DNA-EB-Complex Kbin (M^−1) × 10^5 [6] | Antioxidant (IC50 mg/mL) FRAP [7] [mg/mL] | Protein-Complex Kb (M^−1) × 10^4 [8] | MIC [2] [µg/mL] | MIC [4] [µg/mL] | MIC ([5]; Staphylococcus aureus, ATCC 700699 / MRSA) [µg/mL] | hypochromic shift in the absorption bands on addition of CT-DNA ([1]; absorption titration with CT-DNA) | MIC ([3]; Escherichia coli, ATCC25922, read-out: Minimum inhibitory concentration, EC) [µg/mL]
O=S(=O)([O-])C(F)(F)F.[Ag+].c1ccc2nc(-c3nc4ccccc4s3)ccc2c1.c1ccc2nc(-c3nc4ccccc4s3)ccc2c1 [Complex Q12, [Ag(L2)2]CF3SO3] | 4.50 (M^−1) × 10^5 | 12.5 | 25 | 50 | 50 | 3.14 (M^−1) × 10^4 | 3.14 (M^−1S^−1) × 10^12 | 2.12 (M^−1) × 10^5 | 1.86 ± 0.024 | 20.7 (M^−1) × 10^4 | – | – | – | – | –
C(=N\Cc1cccs1)/c1ccc2ccccc2n1 [Complex L5, (E)-1-(quinolin-2-yl)-N-(thiophen-2-ylmethyl)methanimine] | 1.17 (M^−1) × 10^5 | – | – | – | – | – | – | – | 3.79 ± 0.0052 | – | 100 | 50 | – | – | –
Clc1ccc(/N=C/c2ccc3ccccc3n2)cc1 [Complex L3, (E)-N-(4-chlorophenyl)-1-(quinolin-2-yl)methanimine] | – | 100 | – | – | – | – | – | – | 20.35 ± 0.0047 | – | 50 to 100 | – | 1000 | – | –
O=C1O[C@H]([C@@H](O)CO)C(O)=C1O [Ascorbic Acid, Ascorbic acid, reference compound] | – | – | – | – | – | – | – | – | 2.68 ± 0.11 | – | – | – | – | – | –
O=S(=O)([O-])C(F)(F)F.[Ag+] [AgCF3SO3, silver trifluoromethanesulfonate, reference compound] | 2.00 (M^−1) × 10^5 | 1000 | 50 | 12.5 | 1000 | 3.01 (M^−1) × 10^4 | 3.01 (M^−1S^−1) × 10^12 | 1.60 (M^−1) × 10^5 | 0.88 ± 0.054 | 4.46 (M^−1) × 10^4 | – | – | – | 23.64–50.86% | –
c1ccc2nc(-c3nc4ccccc4s3)ccc2c1 [Complex L2, 2-(quinolin-2-yl)benzo[d]thiazole] | 1.50 (M^−1) × 10^5 | 100 | – | – | – | – | – | – | 2.29 ± 0.0041 | – | 50 to 100 | – | – | – | –
C(=NCc1cccs1)c1ccc2ccccc2n1.C(=NCc1cccs1)c1ccc2ccccc2n1.O=S(=O)([O-])C(F)(F)F.[Ag+] [Complex Q15, [Ag(L5)2]CF3SO3] | 4.00 (M^−1) × 10^5 | ~0.8 | 25 | 1000 | 100 | 2.48 (M^−1) × 10^4 | 2.48 (M^−1S^−1) × 10^12 | 5.29 (M^−1) × 10^5 | 3.35 ± 0.012 | 13.1 (M^−1) × 10^4 | – | – | – | – | –
Cc1ccc(/N=C/c2ccc3ccccc3n2)cc1 [Complex L4, (E)-1-(quinolin-2-yl)-N-(p-tolyl)methanimine] | 1.60 (M^−1) × 10^5 | – | – | – | – | – | – | – | 4.50 ± 0.0053 | – | – | 1000 | – | – | 1000
Cc1ccc(N=Cc2ccc3ccccc3n2)cc1.Cc1ccc(N=Cc2ccc3ccccc3n2)cc1.O=[N+]([O-])[O-].[Ag+] [Complex Q4, [Ag(L4)2]NO3] | 4.00 (M^−1) × 10^5 | 12.5 | 12.5 | 50 | 50 | 3.50 (M^−1) × 10^4 | 3.50 (M^−1S^−1) × 10^12 | 2.11 (M^−1) × 10^5 | 2.14 ± 0.0035 | 10.3 (M^−1) × 10^4 | – | – | – | – | –
